Test results taken from USRE39197E1, “Cell adhesion-inhibiting antiinflammatory and immune-suppressive compounds” (Abbott Laboratories, priority 1998, dated 2006).

Columns and labels:
[1] = tested on: adhesion of JY-8 cells (expressing LFA-1) to immobilized ICAM-3; test: ICAM-3/JY-8 Cell Adhesion Assay; format: cell-based, human; conditions: 0.6 μM compound, JY-8 cells on immobilized ICAM-3/Ig; for inhibition at 0.6 µM: Homo sapiens
Protocol: As such, it is expected that these compounds should block the interaction of LFA-1 with other CAM's. […] Compounds of the present invention may be evaluated for their ability to block the adhesion of JY-8 cells (a human EBV-transformed B cell line expressing LFA-1 on its surface) to immobilized ICAM-3, as follows:
ICAM-3/JY-8 Cell Adhesion Assay
For measurement of inhibitory activity in the cell-based adhesion assay, 96-well microtiter plates are were coated with 50 μL of recombinant ICAM-3/Ig (ICOS Corporation) at a concentration of 10 μg/mL in D-PBS w/o without Ca^++ or Mg^++ overnight at 4° C. The wells are were then washed twice with D-PBS, blocked by addition of 100 μL of D-PBS, 1% bovine serum albumin (BSA) by incubation for 1 hour at room temperature, and washed once with RPMI-1640/5% heat-inactivated fetal bovine serum (adhesion buffer). Dilutions of compounds to be assayed for ICAM-3/LFA-1 antagonistic activity are were prepared in adhesion buffer from 10 mM stock solutions in DMSO and 100 μL are were added to duplicate wells. JY-8 cells (a human EBV-transformed B cell line expressing LFA-1 on its surface; 100 μL at 0.75×10^6 cells/ml mL in adhesion buffer) are were then added to the wells. Microtiter plates are were incubated for 30 minutes at room temperature; the adherent cells are were then fixed with 50 μL of 14% glutaraldehyde/D-PBS and were incubated for an additional 90 minutes. The wells are were washed gently with dH2O; 50 μL of dH2O is was added, following followed by 50 μL of 1% crystal violet. After 5 minutes the plates are were washed 3× times with dH2O; 75 μL of dH2O and 225 μL of 95% EtOH are were added to each well to extract the crystal violet from the cells. Absorbance is was measured at […] in an ELISA plate reader. The percent inhibition of a candidate compound is was calculated using the following equation. [formula]

[2] = tested on: adherence of JY-8 cells (expressing LFA-1) to immobilized ICAM-1; test: ICAM-1/JY-8 Cell Adhesion Assay; format: cell-based, human
Protocol: ICAM-1/JT-8 Cell Adhesion Assay
For measurment measurement of inhibotory inhibitory activity in the cell-based adhesion assay, 96-well microtiter plates are were coated with 70 μL of recombinat recombinant ICAM-1/Ig (ICOS Corporation) at a concentration of 5 μg/mL in D-PBS w/o without Ca^++ or Mg++ or Mg^++ overnight at 4° C. The wells are were then washed twice with D-PBS and blocked by addition of 200 μL of D-PBS, 5% fish skin gelatin by incubation for 1 hour at room temperature. […] The percent inhibition of a candidate compound at a given concentration is was calculated using the following equation: [formula] and these concentration/inhibition data are were used to generate does response curves, from which IC50 values are were derived.

[3] = target: T1, interaction between the integrin LFA-1 and its adhesion partner ICAM-1 (Homo sapiens, UniProt P20701); test: ICAM-1/LFA-1 Biochemical Interaction Assay; format: binding; conditions: 4 μM compound; recombinant LFA-1, biotinylated ICAM-1/Ig
T1 construct: Recombinant LFA-1 (100 μL of 0.7 μg/ml mL, ICOS Corporation) in D-PBS; purchased ICOS Corporation
T1 sequence (P20701 26-1170): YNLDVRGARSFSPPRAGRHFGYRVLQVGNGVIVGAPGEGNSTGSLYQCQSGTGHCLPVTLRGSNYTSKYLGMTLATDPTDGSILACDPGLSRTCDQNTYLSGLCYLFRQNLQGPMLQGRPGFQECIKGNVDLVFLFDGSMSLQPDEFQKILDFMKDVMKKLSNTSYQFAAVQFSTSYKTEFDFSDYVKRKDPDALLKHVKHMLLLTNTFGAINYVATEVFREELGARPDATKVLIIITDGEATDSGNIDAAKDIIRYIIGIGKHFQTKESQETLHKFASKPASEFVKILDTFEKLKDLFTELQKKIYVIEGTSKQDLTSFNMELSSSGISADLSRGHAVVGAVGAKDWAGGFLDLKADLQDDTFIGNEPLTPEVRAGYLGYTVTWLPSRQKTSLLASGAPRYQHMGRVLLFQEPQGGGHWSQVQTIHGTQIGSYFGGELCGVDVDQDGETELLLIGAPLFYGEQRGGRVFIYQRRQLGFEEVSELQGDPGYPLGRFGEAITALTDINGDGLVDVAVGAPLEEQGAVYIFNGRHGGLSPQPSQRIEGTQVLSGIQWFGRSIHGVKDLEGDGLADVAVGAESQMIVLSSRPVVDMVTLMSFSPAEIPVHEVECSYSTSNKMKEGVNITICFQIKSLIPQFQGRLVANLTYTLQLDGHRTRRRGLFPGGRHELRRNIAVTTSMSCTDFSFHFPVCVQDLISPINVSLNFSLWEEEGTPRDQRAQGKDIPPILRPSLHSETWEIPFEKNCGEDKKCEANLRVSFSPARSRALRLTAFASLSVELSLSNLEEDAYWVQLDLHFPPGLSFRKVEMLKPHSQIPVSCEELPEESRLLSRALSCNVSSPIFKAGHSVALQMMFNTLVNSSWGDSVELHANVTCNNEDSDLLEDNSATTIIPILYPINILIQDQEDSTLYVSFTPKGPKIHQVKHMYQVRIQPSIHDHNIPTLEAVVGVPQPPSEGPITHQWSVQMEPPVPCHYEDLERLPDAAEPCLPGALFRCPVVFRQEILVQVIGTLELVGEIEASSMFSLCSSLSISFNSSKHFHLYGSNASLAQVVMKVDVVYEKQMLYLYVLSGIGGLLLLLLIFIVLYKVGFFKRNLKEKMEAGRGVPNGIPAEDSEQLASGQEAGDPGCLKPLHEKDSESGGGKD
T1 sequence (P05107 23-769 partner): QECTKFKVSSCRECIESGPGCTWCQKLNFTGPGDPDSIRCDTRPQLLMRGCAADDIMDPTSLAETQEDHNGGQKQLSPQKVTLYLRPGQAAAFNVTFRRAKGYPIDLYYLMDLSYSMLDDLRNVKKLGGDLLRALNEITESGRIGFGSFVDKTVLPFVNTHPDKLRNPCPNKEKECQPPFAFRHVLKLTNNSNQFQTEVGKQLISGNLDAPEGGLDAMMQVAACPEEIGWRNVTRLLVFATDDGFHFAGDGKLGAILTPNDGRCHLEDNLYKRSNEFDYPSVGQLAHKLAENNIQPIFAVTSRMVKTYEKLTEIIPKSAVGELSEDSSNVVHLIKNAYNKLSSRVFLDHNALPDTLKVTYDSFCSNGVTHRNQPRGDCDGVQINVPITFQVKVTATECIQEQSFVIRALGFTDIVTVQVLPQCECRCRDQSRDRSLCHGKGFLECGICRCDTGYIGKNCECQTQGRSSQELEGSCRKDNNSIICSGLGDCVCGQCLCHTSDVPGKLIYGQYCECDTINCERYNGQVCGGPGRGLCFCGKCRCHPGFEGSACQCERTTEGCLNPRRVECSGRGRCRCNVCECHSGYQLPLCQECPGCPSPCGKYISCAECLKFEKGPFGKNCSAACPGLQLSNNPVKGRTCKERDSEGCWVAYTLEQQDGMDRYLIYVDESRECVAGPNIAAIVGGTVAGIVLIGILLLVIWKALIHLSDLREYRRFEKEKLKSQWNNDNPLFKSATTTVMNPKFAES
Protocol: Compounds that antagonize the interaction between ICAM-1 and LFA-1 can be identified, and their activities quantitated, using both biochemical and cell-based adhesion assays. A primary biochemical assay measures the ability of the compound in question to block the interaction between the integrin LFA-1 and its adhesion partner ICAM-1, as described below:
ICAM-1/LFA-1 Biochemical Interaction Assay
In the biochemical assay, 100 μL of anti-LFA-1 antibody (ICOS Corporation) at a concentration of 5 μg/ml mL in Dulbecco's phosphate-buffered saaline (D-PBS) is used to coat wells of a 96-well microtiter plate overnight at 4° C. The wells are were then washed twice with wash buffer (D-PBS w/o Ca^++ or Mg^++, 0.05% Tween 20) and blocked by addition of 200 μL of D-PBS, 5% fish skin gelatin. Recombinant LFA-1 (100 μL of 0.7 μg/ml mL, ICOS Corporation) in D-PBS is was then added to each well. Incubation continues continued for 1 hour at room temperature and the wells are were washed twice with wash buffer. Serial dilutions of compounds being assayed as ICAM-1/LFA-1 antagonists, were prepared as 10 mM stock solutions in dimethyl sulfoxide (DMSO), are were diluted in D-PBS, 2 mM MgCl2, 1% fish skin gelatin and 50 μL of each dilution was added to duplicate wells. This is was followed by the addition of 50 μL of 0.8 μg/ml mL biotinylated recombinant ICAM-1/Ig (ICOS Corporation) to the wells and the plates are were incubated at room temperature for 1 hour. The wells are were then washed twice with wash buffer and 100 μL of Europium-labeled Streptavidin (Wallac Oy) diluted 1:100 in Delfia assay buffer (Wallac Oy), are was then added to the wells. Incubation proceeds proceeded for 1 hour at room temperature. The wells are were washed eight times with wash buffer and 100 μL of enhancement solution (Wallac Oy, cat. No. 1244-105) are was added to each well. Incubation proceeds proceeded for 5 minutes with constant mixing. Time-resolved fluorimetry measurements are were made using the a Victor 1420 Multilabel Counter (Wallac Oy) and the percent inhibition of each candidate compound is was calculated using the following equation: [formula] where “background” refers to wells that are were not coated with anti-LFA-1 antibody.

[4] = JY-8 cells on immobilized ICAM-1/Ig
[5] = Homo sapiens, JY-8, JY-8 cells on immobilized ICAM-1/Ig

SMILES | inhibition at 0.6 µM [1] | IC50 ([2]; Homo sapiens, JY-8 cells on immobilized ICAM-1/Ig) | inhibition at 4 µM [3] | % inhibition @ 0.6 μM [1] | IC50 [2, 4] | % inhibition @ 4 μM [3] | IC50 [2, 5]
CC(=O)N1CCN(C(=O)/C=C/c2ccc(Sc3ccccc3C=O)c([N+](=O)[O-])c2)CC1 [Example 60, (2-Formylphenyl)[2-nitro-4-(E-((4-acetylpiperazin-1-yl)carbonyl)ethenyl)phenyl]sulfide] | 100% | 30 nM | 95% | – | – | – | –
Cc1ccccc1Sc1ccc(/C=C/C(=O)N2CCOCC2)cc1C(F)(F)F [Example 27, (2-Methylphenyl)[2-trifluoromethyl-4-(E-((1-morpholinyl)carbonyl)ethenyl)phenyl]sulfide] | – | – | – | 100% | 160 nM | 94% | –
CC(=O)N1CCN(C(=O)/C=C/c2ccc(Sc3ccccc3C(C)C)c([N+](=O)[O-])c2)CC1 [Example 50, (2-iso-Propylphenyl)[2-nitro-4-(E-((4-acetylpiperazin-1-yl)carbonyl)ethenyl)phenyl]sulfide] | 100% | – | – | – | – | – | 10 nM
CC(=O)N1CCN(C(=O)/C=C/c2ccc(Sc3ccccc3C)c(C(F)(F)F)c2)CC1 [Example 26] | – | – | – | 100% | 110 nM | 94% | –
CC(=O)N1CCN(C(=O)/C=C/c2ccc(Sc3ccccc3Cl)c([N+](=O)[O-])c2)CC1 [Example 46, (2-Chlorophenyl)[2-nitro-4-(E-((4-acetylpiperazin-1-yl)carbonyl)ethenyl)phenyl]sulfide] | 100% | – | 87% | – | – | – | 60 nM
CC(=O)NC1CCN(C(=O)/C=C/c2ccc(Sc3ccccc3Br)c(Cl)c2)C1 (stereo not drawn) [Example 17] | – | – | – | 100% | 5800 nM | 84% | –
CC(=O)N1CCN(C(=O)/C=C/c2ccc(Sc3ccc(Cl)cc3Cl)c(Cl)c2)CC1 [Example 9, (2,4-Dichlorophenyl)[2-chloro-4-(E-((4-acetylpiperazin-1-yl)carbonyl)ethenyl)phenyl]sulfide] | 100% | – | 93% | – | – | – | 130 nM
O=C(/C=C/c1ccc(Sc2ccccc2Br)c(Cl)c1)N1CCCCC1CO (stereo not drawn) [Example 16, (2-(Bromophenyl)[2-chloro-4-(E-((2-hydroxymethyl)piperidin-1-yl)carbonyl)ethenyl)phenyl]sulfide] | – | – | – | 100% | 300 nM | 86% | –
O=C(/C=C/c1ccc(Sc2ccccc2NCCCN2CCOCC2)c(Cl)c1)N1CCOCC1 [Example 62, (2-((3-(1-Morpholinyl)propyl)-1-amino)phenyl)[2-chloro-4-(E-((1-morpholinyl)carbonyl)ethenyl)phenyl]sulfide] | – | – | – | 100% | 340 nM | – | –
O=C(/C=C/c1ccc(Sc2ccccc2/C=C/C(=O)N2CCOCC2)c(Cl)c1)N1CCOCC1 [Example 59, (2-(E-((1-Morpholinyl)carbonyl)ethenyl)phenyl)[2-chloro-4-(E-((1-morpholinyl)carbonyl)ethenyl)phenyl]sulfide] | – | – | – | 100% | 200 nM | – | –
O=C(/C=C/c1ccc(Sc2ccccc2CN2CCN(Cc3ccc4c(c3)OCO4)CC2)c(Cl)c1)N1CCOCC1 [Example 54, (2-(4-(1,3-Benzodioxolyl-5-methyl)piperazin-1-ylmethyl)phenyl)[2-chloro-4-(E-((1-morpholinyl)carbonyl)ethenyl)phenyl]sulfide] | – | – | – | 100% | 360 nM | – | –
CC(=O)N1CCN(C(=O)/C=C/c2ccc(Sc3ccc(Cl)cc3Cl)c([N+](=O)[O-])c2)CC1 [Example 32, (2,4-Dichlorophenyl)[2-nitro-4-(E-((4-acetylpiperazin-1-yl)carbonyl)ethenyl)phenyl]sulfide] | 100% | – | 92% | – | – | – | –
O=C(/C=C/c1ccc(Sc2ccccc2CO)c(Cl)c1)N1CCOCC1 [Example 11, (2-(Hydroxymethyl)phenyl)[2-chloro-4-(E-((1-morpholinyl)carbonyl)ethenyl)phenyl]sulfide] | – | – | – | – | 260 nM | 87% | –
